Source: US7208572B2, “Leptin-related peptides” (Albany Medical College, priority 1998, dated 2007)
Like-named read-outs stand apart in the source and are kept apart here.

Legend:
[1] = db/db mice, 1 mg/day ip
Protocol: Peptide administration: LEP(116–130) and LEP(146–160) peptide amides were dissolved in sterile phosphate buffered saline (PBS, pH 7.2) and administered daily for 7 days between 1500 and 1600 h in a single 1 mg/0.2 ml ip injection. Control mice received 0.2 ml PBS (ip) only.
Feeding and weighing schedule: On day one of the study, and on each day thereafter, 200 g of pelleted rodent diet (Prolab Rat, Mouse, Hamster 3000, St.Louis Mo.; 22% crude protein, 5% crude fat, 5% fiber, 6% ash, 2.5% additional minerals) was added to the hopper on each side of the cages between 0900 and 1100 h. Food remaining after 24 h was weighed to the nearest 0.1 g, and the average amount of food consumed per mouse was calculated (mean±SEM, n=6). The mice were allowed water ad libitum throughout the study, and were weighed once daily between 0900 and 1100 h.
Each value represents the mean±SEM change in body weight or food intake for a group of six mice.

OB-Ra = molecular target: T1, OB-Ra (Mus musculus, UniProt P48356); test: Inhibition of AP-OB fusion protein binding by COS-7 cells transfected with OB receptor; details: 1 nM human AP-OB, peptide up to 300 μM
T1 construct: expressed in transfected cells; host or cells: COS-7
T1 sequence (P48356 22-894 isoform P48356-2 limits assumed): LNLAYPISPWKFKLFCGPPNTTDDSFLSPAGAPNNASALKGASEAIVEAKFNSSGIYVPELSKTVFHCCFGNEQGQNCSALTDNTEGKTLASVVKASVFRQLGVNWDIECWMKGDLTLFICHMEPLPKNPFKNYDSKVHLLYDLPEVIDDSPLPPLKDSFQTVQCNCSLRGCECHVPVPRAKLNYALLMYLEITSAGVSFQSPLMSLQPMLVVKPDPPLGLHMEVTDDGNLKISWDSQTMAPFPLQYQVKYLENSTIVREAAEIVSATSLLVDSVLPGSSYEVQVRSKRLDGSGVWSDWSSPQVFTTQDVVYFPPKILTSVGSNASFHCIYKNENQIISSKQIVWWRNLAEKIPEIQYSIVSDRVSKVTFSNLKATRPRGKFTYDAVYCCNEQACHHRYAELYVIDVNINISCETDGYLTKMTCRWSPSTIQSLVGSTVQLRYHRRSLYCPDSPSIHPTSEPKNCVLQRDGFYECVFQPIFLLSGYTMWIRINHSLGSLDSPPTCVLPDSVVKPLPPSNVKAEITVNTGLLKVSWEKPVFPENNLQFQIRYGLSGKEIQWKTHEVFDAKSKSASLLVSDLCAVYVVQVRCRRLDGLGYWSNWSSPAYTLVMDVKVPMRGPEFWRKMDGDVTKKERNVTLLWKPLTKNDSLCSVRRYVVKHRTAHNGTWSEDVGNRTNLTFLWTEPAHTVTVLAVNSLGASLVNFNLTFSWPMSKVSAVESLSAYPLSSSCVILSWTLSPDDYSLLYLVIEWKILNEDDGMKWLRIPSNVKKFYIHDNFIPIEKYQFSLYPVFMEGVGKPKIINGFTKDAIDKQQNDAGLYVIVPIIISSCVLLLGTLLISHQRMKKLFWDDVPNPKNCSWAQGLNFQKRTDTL
From the text: Initial experiments to determine the mechanism of action of LEP(116–130) utilized two highly sensitive in vitro bioassays routinely used to assess leptin binding and receptor activation (see e.g., White, et al., 1997. Proc. Natl. Acad. Sci. U.S.A. 94: 10657–10662). An alkaline phosphatase (“AP”)-leptin (“OB”) fusion protein (“AP-OB”) was used to measure inhibition of leptin binding in the absence or presence of recombinant mouse leptin (positive control) or peptide, by COS-7 cells transfected with the long (signaling) form of the mouse OB receptor (“OB-RL”). Signal transduction assays were done in GT1–7 cells cotransfected with AP reporter and OB-RL constructs. Secreted alkaline phosphatase (“SEAP”) activity in response to stimulation with mouse leptin or peptide was measured by chemiluminescence.
Two days after transfection, COS-7 cells were incubated with 1 nm human AP-OB fusion protein and bound AP activity was determined by chemiluminescence using the Great EscApe alkaline phosphatase detection kit as described by the manufacturer (CLON-TECH).
COS-7 cells were transfected with expression vector for OB-Ra. Two days after transfection, the cells were incubated with 1 nM human AB-OB fusion protein in the absence or presence of 30 nM mouse leptin, 300 μM LEP(116–130) or LEP(146–160). Bound AP activity was determined as has been described. See., e.g., Kamohara et al., 1997 Nature 389: 374–377.

[2] = Epitope mapping: body weight and food intake in female C57BL/6J ob/ob mice, 7 daily ip injections; format: in vivo, mouse; details: 1 mg/day ip, 7 days
Protocol: Animal procedures. Feeding and weighing schedules, as well as peptide administration protocols, are as described in EXAMPLE 8, supra.
Statistical analysis. Changes in body weight and differences in food intake between peptide-treated and vehicle-injected control mice were analyzed by analysis of variance (ANOVA) and considered significant when P<0.05.
Female ob/ob mice (n=6 per group) were given a single ip injection of 0.2 ml of vehicle (PBS, pH 7.2) or leptin-related synthetic peptide amide in 0.2 ml PBS for 7 consecutive days. Daily changes in body weight compared to pretreatment weights in both vehicle-injected control and peptide-treated mice are shown in FIG. 4. […] There was no evidence of weight loss in response to peptide treatment.

A L S R L Q G S L Q D I L Q Q (ALSRLQGSLQDILQQ) [LEP(146–160)]
Weight after 7 days [1]: 36.2 ± 1.4 g
Cumulative food intake ([1]; 7 days): 53.5 ± 0.3 gm/mouse
Effect on body weight gain and food intake ([1]; 7 days): had no effect on either body weight
Percent increase (body weight) ([1]; 7 days): +18.3%
Weight increase ([1]; 7 days): +5.6 g
Inhibition of AP-OB fusion protein binding (OB-Ra): neither LEP(116–130) nor LEP(146–160), at 300 μM, were able to inhibit AP-OB binding
Inhibition of AP-OB fusion protein binding (OB-Ra; listed as LEP(145–160)): unable to inhibit AP-OB binding
Cumulative food intake [2]: 40.5 ± 1.0 gm/mouse
Percent heavier (+) or lighter (−) than initial weight [2]: +28.0%
Weight gain (+) or loss (−) [2]: +6.8 g
